Measurements taken from patent publication US20230121867A1, “COMPOSITIONS AND METHODS FOR TREATING DISEASES AND CONDITIONS BY DEPLETION OF MITOCHONDRIAL OR GENOMIC DNA FROM CIRCULATION” (Cedars-Sinai Medical Center, priority 2019, published 2023).

Assays:
[1] = system: xenografts of CAF and PC3 cells; assay: Subcutaneous xenograft of PC3 and CAF in male nude mice
Text: A Subcutaneous xenografts of PC3 and CAF tumor volumes were longitudinally measured. […] Representative images show each group of mice (inset). […] C Immunolocalization ofphosphorylated-TAK1, complement C3, phosphorylated-AKT, phosphorylated-histoneH3 and TUNEL expression in tumor tissues (brown) was counterstained with hematoxylin (blue). The corresponding bar graph illustrate the mean and S.D. expression of the respective staining (n=5). Data represent the mean ± S.D. by one-way ANOVA (*P <0.05; **P <0.01). The scale bar represents 10 µm.
Data represent the mean ± S.D. among groups by oneway ANOVA (ns - not significant). C H&E images of resulting tumors from each treatment group of subcutaneous xenografted mice.
Animal experiments and cultured cells: Male C57BL/6 mice aged 7-8 weeks were housed in a pathogen-free environment at the Cedars-Sinai Medical Center Animal Facility under the approval of the Institutional Animal Care and Use Committee (# 3679). Sub-renal capsule was performed with wild type mouse fibroblasts (6×10^5) or TLR9^-/- mouse fibroblasts (6×10^5) combining with mouse prostate epithelial cell TRAMP-C2 (2×10^5) . Treatment with SB290157 (1 mg/kg; i.p. daily) was started after two weeks of grafting and continued for five weeks. All mouse kidney, spleen, lymph nodes were harvested after five weeks of treatment were fixed in paraffin embedded for IHC or dissociated for FACS analysis. Subcutaneous xenograft was done in male nude mice aged 7-8 weeks in combination of PC3 (5×10^5) and CAF (15×10^5). […] Harvested tissues were fixed in paraffin embedded for IHC or dissociated for immunoblot analysis.
Immunodetection: Paraffin embedded tissue were processed for Immunohistochemical localization was performed with antibodies against p-AKT, p-TAK, p-histoneH3 (Cell Signaling, Danvers, MA), C3 (Santa Cruz Biotechnology, Santa Cruz, CA), and TUNEL (Thermo Fisher Scientific Inc.) as previously described before (52, 53). All the slides were scanned using Leica SCN400 (Leica Micro System, Buffalo Grove, IL) and analyzed by Tissue IA Optimizer (Leica). The values of positively stained cells were measured in an unbiased manner. C3a concentration of cultured medium and serum was assayed by sandwich ELISA using human C3a ELISA kit (BD Bioscience, San Jose, CA) according to the manufacturer’s instructions. Western blots separated by 10, 12, or 15% SDS-polyacrylamidegels were incubated with primary antibodies for TLR9, DEC205 (LS Bio Seattle, WA), phospho-TAK1, TAK1, phospho-AKT, AKT, phosphor-ERK1/2, ERK, BCL2, beclin, CHOP (Cell Signaling), LC3 (Abcam, Cambridge, MA), C3 (Santa Cruz Biotechnology) and p62 (ProgenBiotechnik, Heidelberg, Germany). Western blots were visualized using alkaline phosphatase-conjugated secondary antibodies (Sigma-Aldrich). The ELISA for anaphylatoxin C3a for performed according to manufacturer guidelines (LSBio Inc.).

[2] = system: PC3 and CAF co-culture; assay: 3D organotypic co-culture of PC3 and CAF, EpCAM+/Ki67+ FACS; format: cell-based; settings: PC3 and CAF 3D co-culture, 48 hours
Protocol: (§1) Significance was determined by repeated measures ANOVA.
3D organotypic co-culture: 3D organotypic co-culture was performed in a collagen matrix. PC3 and CAF were combined in a 1:3 ratio in collagen matrix contain 50% rat tail collagen I, 20% of matrigel, 10% of 10x DMEM medium and 1x ready DMEM 5%, 1x ready RPMI 5%, FBS 5% and Nu serum 5%. Cells were treated with docetaxel and SB290157 for 48 hours after 72 hours of expansion in the matrix. The cells were dissociated from the matrix with collagenase and dispase for Ki67 FACS analysis.

[3] = system: PC3 cells; assay: MTT viability drug interaction study, Chou-Talalay method; format: cell-based; settings: low doses of SB290157 with docetaxel
Protocol: as §1
Statistical analysis: Experiments were done a minimum of three times. Results were shown in terms of mean ± S.D. Student’s t-test and one-way ANOVA were used for comparisons among groups and repeated measured ANOVA was applied for determining the significance of two or more data series. Statistical tests utilized are reported in the figure legends, along with the associated P values was performed by using Origin software (OriginLab, Northampton, MA). Cell viability was examined by using MTT assay as indicated by the manufacturer (Thermo Fisher, Canoga Park, CA) for the calculation of synergistic drug interactions was performed by Chou-Talalay method (R Package).

[4] = system: TRAMPC2 with wild type fibroblasts allografts; assay: Sub-renal capsule allograft of TRAMPC2 with wild type fibroblasts in C57BL/6 mice; format: in vivo, mouse
Protocol: FIG. 3, panels A-E, depicts Role of C3a in PCa progression. A PCa cell lines incubated in the absence and presence of C3a receptor agonist peptide (48 hr) was western blotted for cell survival and proliferation protein expression. B C57BL/6 mice were allografted with tissue recombinants of luciferase-expressing TRAMPC2 with wild type (wt) or Tlr9^-/-fibroblasts. The mice were treated with saline or […], SB290157. Luciferase bioluminescence was used to image tumor progression. C Mean tumor volume (mm^3) and standard deviation (S.D.) for each treatment condition are depicted (n=8). D H&E and immunohistochemistry for phosphorylated-AKT, phosphorylated-histone-H3 and TUNEL staining of the tumor tissues were performed and quantitated. […] The scale bar represents 10 µm.
To validate the observation of C3a signaling, we allografted mouse prostatic fibroblasts with PCa epithelia into syngeneic C57B/6 mice. We grafted either wild type or TLR9-knockout fibroblasts and recombined them with luciferase-expressing TRAMPC2 cells under the renal capsule. After the tumors were visible by bioluminescent imaging, the mice were treated with either vehicle (control) or SB290157, a C3aR antagonist. […] We were only able to perform immunohistochemistry on the grafts with wild type fibroblasts and TRAMPC2, as not enough tissue was available from grafts with TLR9-knockout fibroblasts. […] The activation of AKT, localized by phosphorylated AKT staining, was elevated in the tumor cells of mouse allografted with wild type fibroblasts and reversed in SB290157 treated mice.
Complement anaphylatoxins have a wide spectrum of proinflammatory effects. C3a is particularly regarded for the chemotaxis of mast cells, basophils and eosinophils. As T lymphocytes are confirmed regulators of tumor progression and known to respond to C3a, we measured the impact of C3a antagonism on T cell recruitment to the tumors.

[5] = western blot, SB290157 with docetaxel

## NC(N)=NCCC[C@H](NC(=O)COCC(c1ccccc1)c1ccccc1)C(=O)O [SB290157]
[1]; SB290157 with docetaxel compared to docetaxel alone
  apoptosis (TUNEL): did not result in greater apoptosis
[1]; combined treatment of docetaxel (6 mg/kg/week) and SB290157 (1 mg/kg IP every day), P < 0.05
  tumor growth: significantly limited tumor growth
[1]; immunohistochemistry, combined treatment of docetaxel and SB290157 versus docetaxel
  phosphorylation of AKT and phosphorylated histone-H3 (cell survival pathway and mitosis): significantly diminished
[1]; [5]
  AKT and ERK1/2 phosphorylation in tumor tissues: reduced AKT and ERK1/2 phosphorylation
  Blc2 in tumor tissues: reduced
[2]
  EpCAM+/Ki67+ proliferative epithelial fraction: restored the sensitivity of PC3 cells to docetaxel
[3]
  fractional inhibitory concentration index: < 0.5
[4]; 1 mg/kg i.p. daily, versus vehicle treated mice
  tumor size: significantly smaller tumor size
[4]; FACS of tumor tissues
  CD3+ T cells recruited to the tumors: similarly recruited
  CD8+ T cell activation (CD69+ expression): appreciably downregulated
[4]; immunohistochemistry of grafts
  activation of AKT (phosphorylated AKT staining): reversed
  cell death (TUNEL staining): elevate cell death
[4]; immunohistochemistry of grafts, 1 mg/kg i.p. daily, 1 mg/kg
  tumor cell mitosis (phosphorylated-histone H3 expression), tumor proliferation: significantly diminish tumor proliferation
[4]; immunohistochemistry of grafts, 1 mg/kg i.p. daily, listed as SB29157, 1 mg/kg
  tumor cell mitosis (phosphorylated-histone H3 expression), tumor proliferation: significantly lower
